In ChEMBL document CHEMBL1201862, “PubChem BioAssay data set” (2004):
The source made the active and inactive calls.

Legend:
[1] = NIH3T3 cell viability loss – ATP luminescence, mouse fibroblasts, counter-screen, dose response (AID 2010); type: functional, cell-based;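 note: cells exposed to compound for about 90 hours before reading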
INS1 = experiment: INS-1E survival protection against cytokine death – cell-based, luminescence, retest, dose response (AID 449756); type: functional; conditions: Rattus norvegicus;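 note: cell death triggered by IL-1 beta plus TNF-alpha plus IFN-gamma mixture; protective hits raise ATP signal compared with cytokine alone wells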
[2] = molecular target: T1, Sentrin-specific protease 7 (Homo sapiens, UniProt Q9BQF6); type: functional;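 note: Luminescence-based dose-response confirmation of ultra-high-throughput screening hits, measuring inhibition of SENP7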
T1 sequence (Q9BQF6 whole entry): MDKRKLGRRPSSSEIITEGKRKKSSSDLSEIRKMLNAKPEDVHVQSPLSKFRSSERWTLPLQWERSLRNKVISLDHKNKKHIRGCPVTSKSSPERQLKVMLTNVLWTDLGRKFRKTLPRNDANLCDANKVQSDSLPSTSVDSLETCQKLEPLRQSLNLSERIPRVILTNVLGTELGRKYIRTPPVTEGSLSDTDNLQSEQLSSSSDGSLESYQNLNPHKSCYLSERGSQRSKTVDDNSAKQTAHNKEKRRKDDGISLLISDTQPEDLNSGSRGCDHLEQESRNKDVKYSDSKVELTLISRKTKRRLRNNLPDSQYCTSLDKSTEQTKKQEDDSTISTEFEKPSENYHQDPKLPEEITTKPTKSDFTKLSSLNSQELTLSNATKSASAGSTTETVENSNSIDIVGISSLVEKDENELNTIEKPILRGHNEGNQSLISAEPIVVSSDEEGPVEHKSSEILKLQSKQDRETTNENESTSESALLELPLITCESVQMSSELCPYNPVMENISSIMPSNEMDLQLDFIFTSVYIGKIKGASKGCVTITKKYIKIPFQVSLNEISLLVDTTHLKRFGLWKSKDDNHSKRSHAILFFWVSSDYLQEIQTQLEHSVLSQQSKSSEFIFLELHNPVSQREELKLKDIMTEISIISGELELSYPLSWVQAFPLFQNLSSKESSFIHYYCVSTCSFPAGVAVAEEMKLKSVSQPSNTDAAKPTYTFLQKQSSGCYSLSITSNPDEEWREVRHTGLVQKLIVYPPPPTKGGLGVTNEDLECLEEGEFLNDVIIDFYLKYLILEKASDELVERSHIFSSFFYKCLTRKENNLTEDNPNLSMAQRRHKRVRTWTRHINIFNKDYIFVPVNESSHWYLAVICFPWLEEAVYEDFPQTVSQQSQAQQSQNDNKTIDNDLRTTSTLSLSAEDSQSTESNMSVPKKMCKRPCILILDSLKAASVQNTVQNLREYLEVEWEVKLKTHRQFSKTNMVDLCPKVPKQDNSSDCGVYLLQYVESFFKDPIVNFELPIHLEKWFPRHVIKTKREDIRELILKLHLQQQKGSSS

Large T antigen = Large T antigen (Simian virus 40, UniProt P03070); type: functional, Betapolyomavirus macacae;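 note: Confirmatory-stage PubChem screen for compounds that inhibit SV40 T antigen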
[3] = NIH-3T3 fibroblast cytotoxicity, dose response, cytotoxicity control, cell-based, fluorescence, Alamar Blue, secondary assay (AID 2327); type: functional;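 note: NIH-3T3 mouse fibroblasts cultured with fluconazole at 8 µg/mL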
[4] = fluconazole-exposed Candida albicans growth modulators – fluorescence, retest, confirmation (AID 2467); type: functional, cell-based
[5] = Counterscreen for AddAB inhibitors: absorbance-based bacterial cell-based high throughput dose response assay for inhibitors of bacterial viability. [Related pubchem assays (depositor defined):AID435030, AID449728, AID449731, AID488942, AID488955, AID488956]; type: functional
Protein skinhead-1 = molecular target: T2, Protein skinhead-1 (Caenorhabditis elegans, UniProt P34707); type: functional
T2 sequence (P34707 whole entry): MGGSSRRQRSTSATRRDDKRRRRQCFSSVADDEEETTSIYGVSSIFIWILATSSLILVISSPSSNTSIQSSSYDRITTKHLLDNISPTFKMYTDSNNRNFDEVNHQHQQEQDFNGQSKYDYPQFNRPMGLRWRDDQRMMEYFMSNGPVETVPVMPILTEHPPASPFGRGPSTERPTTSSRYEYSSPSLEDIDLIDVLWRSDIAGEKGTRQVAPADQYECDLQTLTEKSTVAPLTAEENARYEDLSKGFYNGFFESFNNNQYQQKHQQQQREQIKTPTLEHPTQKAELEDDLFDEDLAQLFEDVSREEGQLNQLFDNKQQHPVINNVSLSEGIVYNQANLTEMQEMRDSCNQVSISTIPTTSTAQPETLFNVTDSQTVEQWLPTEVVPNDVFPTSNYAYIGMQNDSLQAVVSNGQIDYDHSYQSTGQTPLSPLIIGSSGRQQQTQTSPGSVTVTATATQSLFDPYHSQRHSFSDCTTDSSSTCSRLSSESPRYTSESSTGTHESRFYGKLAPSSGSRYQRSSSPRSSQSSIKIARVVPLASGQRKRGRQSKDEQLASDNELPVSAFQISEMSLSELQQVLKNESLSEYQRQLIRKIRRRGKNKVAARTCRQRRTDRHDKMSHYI

HeLa = experiment: viability loss in HeLa cells – cell-based, ATP luminescence, cherry-pick samples, cytotoxicity control, dose response (AID 687004); type: functional; conditions: Homo sapiens
[6] = molecular target: T3, Type-1 angiotensin II receptor (Homo sapiens, UniProt P30556); experiment: antagonism of angiotensin II type 1 receptor – cell-based, uHTS hits, selectivity assay for APJ receptor antagonist project, dose response (AID 463214); type: functional;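 note: antagonist potency against angiotensin II stimulated AT1 response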
T3 sequence (P30556 whole entry): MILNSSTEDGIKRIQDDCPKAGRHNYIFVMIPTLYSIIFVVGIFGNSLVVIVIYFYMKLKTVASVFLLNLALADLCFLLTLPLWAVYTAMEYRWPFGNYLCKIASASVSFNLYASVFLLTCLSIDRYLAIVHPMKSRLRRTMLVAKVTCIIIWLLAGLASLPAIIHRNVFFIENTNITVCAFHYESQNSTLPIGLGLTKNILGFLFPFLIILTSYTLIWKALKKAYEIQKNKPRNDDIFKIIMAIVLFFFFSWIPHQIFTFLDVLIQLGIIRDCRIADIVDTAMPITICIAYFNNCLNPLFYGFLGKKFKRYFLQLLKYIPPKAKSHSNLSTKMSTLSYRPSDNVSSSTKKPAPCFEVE

Cryptococcus neoformans = experiment: Cryptococcus growth inhibition by alamar blue – cell lysis, cherry-picks, replicate tests, mechanism study for C. neoformans antifungal project, dose response (AID 686999); type: functional, organism-based
[7] = cytotoxicity toward MDA-MB-231 breast cancer cells – cell-based, CellTiter-Glo luminescence, cherry-pick, cytotoxicity control for RAD54 inhibitor project, dose response (AID 651692); type: functional
[8] = Luminescence Cell-Based Dose Response HTS to Identify Inhibitors of 5'UTR Stem-Loop Driven Prion Protein mRNA Translation in H4 Neuroglioblastoma Cells. [Related pubchem assays: 1827 (Project Summary), 1813 (Primary HTS)]; type: functional

Chain of Large T antigen (P03070 whole entry): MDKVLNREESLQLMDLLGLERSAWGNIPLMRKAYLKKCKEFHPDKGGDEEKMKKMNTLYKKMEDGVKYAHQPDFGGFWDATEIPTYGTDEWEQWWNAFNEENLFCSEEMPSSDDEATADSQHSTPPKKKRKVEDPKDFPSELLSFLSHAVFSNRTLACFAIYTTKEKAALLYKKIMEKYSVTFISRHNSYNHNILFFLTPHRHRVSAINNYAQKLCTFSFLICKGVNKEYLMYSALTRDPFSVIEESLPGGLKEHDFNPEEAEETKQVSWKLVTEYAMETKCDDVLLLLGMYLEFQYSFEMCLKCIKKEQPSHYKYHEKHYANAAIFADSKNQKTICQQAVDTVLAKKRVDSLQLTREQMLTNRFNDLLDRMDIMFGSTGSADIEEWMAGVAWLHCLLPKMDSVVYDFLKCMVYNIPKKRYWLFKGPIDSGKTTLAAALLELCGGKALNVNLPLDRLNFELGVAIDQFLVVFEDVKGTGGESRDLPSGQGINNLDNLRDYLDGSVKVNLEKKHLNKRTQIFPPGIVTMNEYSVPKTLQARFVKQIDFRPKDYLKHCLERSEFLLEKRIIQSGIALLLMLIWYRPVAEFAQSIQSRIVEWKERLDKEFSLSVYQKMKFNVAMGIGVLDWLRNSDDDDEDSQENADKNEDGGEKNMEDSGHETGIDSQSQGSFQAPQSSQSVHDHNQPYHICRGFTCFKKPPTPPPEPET

Question: For `CCCCCCCCCCOC(=O)Cn1c(COc2ccccc2)[n+](C)c2ccccc21`, which EC50 [1] is on record?
Answer: The EC50 was > 60 µM (not active).

Question: And the AC50 (INS1)?
Answer: Its AC50 is 3.72 µM (active).

Question: Which IC50 [2] does the source give for `N#Cc1c(NC(=O)c2ccc(Br)o2)n(-c2ccccc2)c2nc3ccccc3nc12` here?
Answer: Its IC50 is 3.69 µM (active).

Question: Which IC50 (Large T antigen) does the source give for `COc1cc(-c2nnc(SCc3cc(=O)oc4cc(O)c(O)cc34)o2)cc(OC)c1OC` here?
Answer: The IC50 was 2.8 µM (active).

Question: What about the EC50 [3] of the same compound?
Answer: The EC50 was > 150 µM (inactive).

Question: What about the EC50 [4] of the same compound?
Answer: The EC50 was > 38 µM (not active).

Question: And the IC50 [5]?
Answer: Its IC50 is > 119 µM (inactive).

Question: Which results are given for `CCOC(=O)c1c(-c2ccc(-c3ccccc3)cc2)csc1NC(=O)CNCCN(C)C`?
Answer: IC50 (Protein skinhead-1): 12.5 µM (active); AC50 (HeLa): 8.39 µM (active); IC50 [6]: 9.33 µM (active); AC50 (Cryptococcus neoformans): 14.7 µM (active); AC50 [7]: 18.4 µM (active); EC50 [8]: 13.7 µM (active)
